Experimental data published in ChEMBL document CHEMBL1287715, “Discovery of N-benzyl-N'-(4-pipyridinyl)urea CCR5 antagonists as anti-HIV-1 agents (I): optimization of the amine portion” (Bioorg Med Chem Lett, 2010).

Legend:
HOS = experiment: Cytotoxicity against HOS cells upto 1 uM by celltiter glo assay; assay type: cell-based; details: human
[1] = Cytotoxicity against peripheral blood lymphocyte cells upto 1 uM by celltiter glo assay; assay type: cell-based; details: human

SMILES	Activity (HOS)	Activity [1]
C=CCN(C(=O)OCc1ccc(C(F)(F)F)cc1)C1CCN(CCC2(c3cccc(F)c3)CCN(C(=O)c3cc(S(=O)(=O)NC(C)(C)C)c(F)cc3Cl)CC2)CC1	Non-toxic	Non-toxic
C=CCN(C(=O)OCc1ccc(F)cc1)C1CCN(CCC2(c3cccc(F)c3)CCN(C(=O)c3cc(S(=O)(=O)NC(C)(C)C)c(F)cc3Cl)CC2)CC1	Non-toxic	Non-toxic
C=CCN(C(=O)OCc1ccc(C(=O)OC)cc1)C1CCN(CCC2(c3cccc(F)c3)CCN(C(=O)c3cc(S(=O)(=O)NC(C)(C)C)c(F)cc3Cl)CC2)CC1	Non-toxic	Non-toxic
C=CCN(C(=O)OCc1ccc(S(C)(=O)=O)cc1)C1CCN(CCC2(c3cccc(F)c3)CCN(C(=O)c3cc(S(=O)(=O)NC(C)(C)C)c(F)cc3Cl)CC2)CC1	Non-toxic	Non-toxic
C=CCN(C(=O)OCc1ccc(C#N)cc1)C1CCN(CCC2(c3cccc(F)c3)CCN(C(=O)c3cc(S(=O)(=O)NC(C)(C)C)c(F)cc3Cl)CC2)CC1	Non-toxic	Non-toxic
C=CCN(C(=O)OCc1ccc(OC(F)(F)F)cc1)C1CCN(CCC2(c3cccc(F)c3)CCN(C(=O)c3cc(S(=O)(=O)NC(C)(C)C)c(F)cc3Cl)CC2)CC1	Non-toxic	Non-toxic
C=CCN(C(=O)Nc1ccc(C(F)(F)F)cc1)C1CCN(CCC2(c3cccc(F)c3)CCN(C(=O)c3cc(S(=O)(=O)NC(C)(C)C)c(F)cc3Cl)CC2)CC1	Non-toxic	Non-toxic
C=CCN(C(=O)NCc1ccc(C(F)(F)F)cc1)C1CCN(CCC2(c3cccc(F)c3)CCN(C(=O)c3cc(S(=O)(=O)NC(C)(C)C)c(F)cc3Cl)CC2)CC1	Non-toxic	Non-toxic
C=CCN(C(=O)Nc1ccc(F)cc1)C1CCN(CCC2(c3cccc(F)c3)CCN(C(=O)c3cc(S(=O)(=O)NC(C)(C)C)c(F)cc3Cl)CC2)CC1	Non-toxic	Non-toxic
C=CCN(C(=O)NCc1ccc(F)cc1)C1CCN(CCC2(c3cccc(F)c3)CCN(C(=O)c3cc(S(=O)(=O)NC(C)(C)C)c(F)cc3Cl)CC2)CC1	Non-toxic	Non-toxic
C=CCN(C(=O)Nc1ccc(C#N)cc1)C1CCN(CCC2(c3cccc(F)c3)CCN(C(=O)c3cc(S(=O)(=O)NC(C)(C)C)c(F)cc3Cl)CC2)CC1	Non-toxic	Non-toxic
C=CCN(C(=O)NCc1ccc(C#N)cc1)C1CCN(CCC2(c3cccc(F)c3)CCN(C(=O)c3cc(S(=O)(=O)NC(C)(C)C)c(F)cc3Cl)CC2)CC1	Non-toxic	Non-toxic
C=CCN(C(=O)Nc1ccc(S(C)(=O)=O)cc1)C1CCN(CCC2(c3cccc(F)c3)CCN(C(=O)c3cc(S(=O)(=O)NC(C)(C)C)c(F)cc3Cl)CC2)CC1	Non-toxic	Non-toxic
C=CCN(C(=O)NCc1ccc(C(=O)OC)cc1)C1CCN(CCC2(c3cccc(F)c3)CCN(C(=O)c3cc(S(=O)(=O)NC(C)(C)C)c(F)cc3Cl)CC2)CC1	Non-toxic	Non-toxic
C=CCN(C(=O)NCc1ccc(C(N)=O)cc1)C1CCN(CCC2(c3cccc(F)c3)CCN(C(=O)c3cc(S(=O)(=O)NC(C)(C)C)c(F)cc3Cl)CC2)CC1	Non-toxic	Non-toxic
C=CCN(C(=O)Nc1ccc(OC(C)=O)cc1)C1CCN(CCC2(c3cccc(F)c3)CCN(C(=O)c3cc(S(=O)(=O)NC(C)(C)C)c(F)cc3Cl)CC2)CC1	Non-toxic	Non-toxic
C=CCN(C(=O)Cc1ccc(C(F)(F)F)cc1)C1CCN(CCC2(c3cccc(F)c3)CCN(C(=O)c3cc(S(=O)(=O)NC(C)(C)C)c(F)cc3Cl)CC2)CC1	Non-toxic	Non-toxic
C=CCN(C(=O)Cc1ccc(F)cc1)C1CCN(CCC2(c3cccc(F)c3)CCN(C(=O)c3cc(S(=O)(=O)NC(C)(C)C)c(F)cc3Cl)CC2)CC1	Non-toxic	Non-toxic
C=CCN(C(=O)Cc1ccc(S(C)(=O)=O)cc1)C1CCN(CCC2(c3cccc(F)c3)CCN(C(=O)c3cc(S(=O)(=O)NC(C)(C)C)c(F)cc3Cl)CC2)CC1	Non-toxic	Non-toxic
C=CCN(C(=O)Cc1ccc(OC(F)(F)F)cc1)C1CCN(CCC2(c3cccc(F)c3)CCN(C(=O)c3cc(S(=O)(=O)NC(C)(C)C)c(F)cc3Cl)CC2)CC1	Non-toxic	Non-toxic
C=CCN(C(=O)Cc1ccc(C(N)=O)cc1)C1CCN(CCC2(c3cccc(F)c3)CCN(C(=O)c3cc(S(=O)(=O)NC(C)(C)C)c(F)cc3Cl)CC2)CC1	Non-toxic	Non-toxic
